PubChem BioAssay (NCI)
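Grown in 96-well plates, cells were treated for 48 hours with each compound at five concentrations. Insufficient inhibition: endpoint recorded as highest concentration tested. At the TGI there is no net growth.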

Tests used:
Assay in all cases: NCI anticancer screen, dose series, 48 h
[1] = system: NCI-H522 lung
[2] = system: TK-10 renal
[3] = system: RXF 393 renal
[4] = system: CAKI-1 renal
[5] = system: M14 melanoma
[6] = system: NCI-H23 lung
[7] = system: HOP-62 NSCLC
[8] = system: HS 578T breast
[9] = system: SK-MEL-2 melanoma
[10] = system: SK-OV-3 ovarian

Compound	TGI [1] [µM]	TGI [2] [µM]	TGI [3] [µM]	TGI [4] [µM]	TGI [5] [µM]	TGI [6] [µM]	TGI [7] [µM]	TGI [8] [µM]	TGI [9] [µM]	TGI [10] [µM]
ClC(Cl)(Cl)C1CCOC1n1nc2ccccc2n1 (stereo not given)	> 100	> 100	> 100	> 100	> 100	> 100	> 100	> 100	> 100	> 100
COc1cc(N(CCC#N)CCC#N)ccc1/C(N=Nc1ccc(C)cc1)=N/NC(=O)c1cc(Br)ccc1O	50.3	82	65.6	66.6	> 100	39.3	96.5	> 100	96.5	> 100
